“And” between values parts separate entries of the source, which are not always exact repeats. Identical values can stand only once.
Tested on: Rattus norvegicus
Settings: oral, gavage
[1] = developmental, duration: 24 days, M/F, Sprague-Dawley, generation: F1, F1: Whole Body: Pup Weight per Litter, PND1
[2] = reproduction developmental, duration: 24 days, F, Sprague-Dawley, generation: P0, P0: Whole Body: Clinical Signs
[3] = reproduction developmental, duration: 24 days, F, Sprague-Dawley, generation: P0, P0: Whole Body: Feed Consumption, Absolute + P0: Whole Body: Maternal Body Weight Change + P0: Whole Body: Mortality + P0: Whole Body: No. …
[4] = short-term, duration: 28 days, F, Wistar, Adrenal: Adrenal Gland Weight, Absolute + Adrenal: Adrenal Gland Weight, Relative + Kidney: Creatinine (CREAT) + Multi-Organ: Calcium (CA)
[5] = short-term, duration: 28 days, M, Wistar, Blood: Hematocrit (HCT) + Blood: Hemoglobin (HGB) + Kidney: Urea + Liver: Alkaline Phosphatase (ALP) + Liver: Liver, Enlarged + Multi-Organ…
[6] = short-term, duration: 28 days, M, Wistar, Liver: Liver Weight, Absolute + Multi-Organ: Glucose (GLU) + Multi-Organ: Potassium (K)
[7] = subchronic, duration: 90 days, F, Sprague-Dawley, Kidney: Calcium (CA) Excretion + Multi-Organ: White Blood Cell (WBC)
[8] = subchronic, duration: 90 days, M, Sprague-Dawley, Blood: Hematocrit (HCT) + Blood: Hemoglobin (HGB)
[9] = subchronic, duration: 90 days, M, Sprague-Dawley, Blood: Red Blood Cell (RBC) + Liver: Aspartate Aminotransferase (AST) + Multi-Organ: Prothrombin Time (PT)
[10] = reproduction developmental, F, Crl:CD(SD), generation: P0, P0: Endocrine: Adrenal: Adrenal Gland Histopathology + P0: Endocrine: Adrenal: Adrenal Gland Weight, Absolute + P0: Endocrine: Adrenal: …
[11] = reproduction developmental, F, Crl:CD(SD), generation: P0, P0: Hematologic: Multi-Organ: Activated Partial Thromboplastin Time (APTT) + P0: Hematologic: Multi-Organ: Hematocrit (HCT) + P0: …
[12] = reproduction developmental, M, Crl:CD(SD), generation: P0, P0: Endocrine: Adrenal: Adrenal Gland Histopathology + P0: Endocrine: Adrenal: Adrenal Gland Weight, Absolute + P0: Endocrine: Adrenal: …
[13] = reproduction developmental, M, Crl:CD(SD), generation: P0, P0: Hematologic: Multi-Organ: Activated Partial Thromboplastin Time (APTT) + P0: Hematologic: Multi-Organ: Hematocrit (HCT) + P0: …
[14] = short-term, duration: 10 days, M, Sprague-Dawley, Endocrine: Multi-Organ: Follicle Stimulating Hormone (FSH), Serum + Endocrine: Multi-Organ: Leuteinizing Hormone (LH), Serum + Endocrine: …
[15] = short-term, duration: 10 days, M, Sprague-Dawley, Endocrine: Multi-Organ: Testosterone (T), Serum + Reproductive: Epididymis: Epididymis Weight, Absolute + Reproductive: Epididymis: …

O=C([O-])C(F)(F)C(F)OC(F)(F)C(F)(F)C(F)(F)OC(F)(F)F.[NH4+] (stereo not given) [Ammonium 4,8-dioxa-3H-perfluorononanoate]
NOAEL (developmental, duration: 24 days, M/F, Sprague-Dawley, generation: F1, F1: Whole Body: Dams with Stillborn Pups + F1: Whole Body: Delivered Litters + F1: Whole Body: Live Pups Born + F1: Whole Body: Mean Pups …): 270 mg/kg-day | LOAEL (developmental, duration: 24 days, M/F, Sprague-Dawley, generation: F1, F1: Whole Body: No Milk in Stomach + F1: Whole Body: Pup Weight per Litter, PND4 + F1: Whole Body: Pup Weight per Litter, PND6 + F1: Whole …): 270 mg/kg-day | LOAEL [1]: 90 mg/kg-day | NOAEL [1]: 30 mg/kg-day | NOAEL (developmental, duration: 24 days, M/F, Sprague-Dawley, generation: F1, F1: Whole Body: Pup Weight per Litter, PND4 + F1: Whole Body: Pup Weight per Litter, PND6 + F1: Whole Body: Survival, PND1 + F1: Whole Body…): 90 mg/kg-day | NOAEL (reproduction developmental, duration: 24 days, F, Sprague-Dawley, generation: P0, P0: Uterus: Resorptions, Early + P0: Whole Body: Feed Consumption, Absolute + P0: Whole Body: Length of Gestation + P0: Whole Body: Length …): 270 mg/kg-day | LOAEL [2]: 90 mg/kg-day | NOAEL [2]: 30 mg/kg-day | LOAEL [3]: 270 mg/kg-day | NOAEL [3]: 90 mg/kg-day | LOAEL [4]: 100 mg/kg-day | NOAEL [4]: 30 mg/kg-day | NOAEL (short-term, duration: 28 days, F, Wistar, Blood: Activated Partial Thromboplastin Time (APTT) + Blood: Albumin/Globulin (A/G) Ratio + Blood: Hematocrit (HCT) + Blood: Hemoglobin (HGB…): 100 mg/kg-day | NOAEL (short-term, duration: 28 days, M, Wistar, Adrenal: Adrenal Gland Weight, Absolute + Adrenal: Adrenal Gland Weight, Relative + Blood: Activated Partial Thromboplastin Time (APTT) + …): 100 mg/kg-day | LOAEL [5]: 100 mg/kg-day | NOAEL [5]: 30 mg/kg-day | LOAEL (short-term, duration: 28 days, M, Wistar, Liver: Hepatocellular Hypertrophy + Liver: Liver Weight, Relative + Liver: Total Bilirubin (TBILI)): 10 mg/kg-day | LOAEL [6]: 30 mg/kg-day | NOAEL [6]: 10 mg/kg-day | NOAEL (subchronic, duration: 90 days, F, Sprague-Dawley, Adrenal: Adrenal Gland Weight, Absolute + Adrenal: Adrenal Gland Weight, Relative + Blood: Activated Partial Thromboplastin Time (APTT) + …): 100 mg/kg-day | LOAEL [7]: 100 mg/kg-day | NOAEL [7]: 30 mg/kg-day | NOAEL (subchronic, duration: 90 days, M, Sprague-Dawley, Adrenal: Adrenal Gland Weight, Absolute + Adrenal: Adrenal Gland Weight, Relative + Blood: Activated Partial Thromboplastin Time (APTT) + …): 10 mg/kg-day | LOAEL [8]: 3 mg/kg-day | NOAEL [8]: 1 mg/kg-day | LOAEL [9]: 10 mg/kg-day | NOAEL [9]: 3 mg/kg-day

O=C(O)C(F)(F)C(F)(F)C(F)(F)C(F)(F)C(F)(F)C(F)(F)C(F)(F)C(F)(F)C(F)(F)C(F)(F)C(F)(F)C(F)(F)C(F)(F)F [Perfluorotetradecanoic acid]
NOAEL (developmental, F, Crl:CD(SD), generation: F1, F1: Developmental: Whole Body: Body Weight, Birth + F1: Developmental: Whole Body: Body Weight, Pup, PND 1 + F1: Developmental: Whole Body: …): 1 mg/kg-day and 3 mg/kg-day | NOAEL (developmental, M/F, Crl:CD(SD), generation: F1, F1: Developmental: Whole Body: Litter Size + F1: Developmental: Whole Body: Male Pups per Pups Sexed + F1: Developmental: Whole Body: Mean …): 1 mg/kg-day and 3 mg/kg-day | NOAEL (developmental, M, Crl:CD(SD), generation: F1, F1: Developmental: Whole Body: Body Weight, Birth + F1: Developmental: Whole Body: Body Weight, Pup, PND1 + F1: Developmental: Whole Body: …): 1 mg/kg-day and 3 mg/kg-day | LOAEL (reproduction developmental, F, Crl:CD(SD), generation: P0, P0: Cardiovascular: Heart: Heart Histopathology + P0: Cardiovascular: Heart: Heart Weight, Absolute + P0: Cardiovascular: Heart: Heart …): 3 mg/kg-day | LOAEL [10]: 3 mg/kg-day | NOAEL [10]: 1 mg/kg-day | LOAEL [11]: 10 mg/kg-day | NOAEL [11]: 3 mg/kg-day | LOAEL (reproduction developmental, M, Crl:CD(SD), generation: P0, P0: Cardiovascular: Heart: Heart Histopathology + P0: Cardiovascular: Heart: Heart Weight, Absolute + P0: Cardiovascular: Heart: Heart …): 3 mg/kg-day | LOAEL [12]: 3 mg/kg-day | NOAEL [12]: 1 mg/kg-day | LOAEL [13]: 10 mg/kg-day | NOAEL [13]: 3 mg/kg-day | LOAEL [14]: 20 mg/kg-day | NOAEL [14]: 10 mg/kg-day | NOAEL (short-term, duration: 10 days, M, Sprague-Dawley, Endocrine: Multi-Organ: Follicle Stimulating Hormone (FSH), Serum + Endocrine: Multi-Organ: Leuteinizing Hormone (LH), Serum + Whole Body: …): 20 mg/kg-day | LOAEL [15]: 20 mg/kg-day | NOAEL [15]: 10 mg/kg-day

Reference: EPA's ToxValDB 9.5
